{
  "source": "patent US20090068290A1",
  "about": "“BIFEPRUNOX DOSES FOR TREATING SCHIZOPHRENIA” (priority 2006, published 2009)",
  "format_in_all_cases": "in vivo, human",
  "key": {"[1]": {"assay": "Body weight, Clinical Study One", "protocol": "Statistical testing of the change from Baseline in weight was performed using similar methodology to that used for the secondary efficacy parameters (an ANCOVA model with factors for treatment and weight at Baseline). Pairwise comparisons of the bifeprunox treatment groups versus placebo were all statistically significant (bifeprunox 5 mg [p=0.025], bifeprunox 10 mg [p=0.009] and bifeprunox 20 mg [p=0.031] for the difference between bifeprunox and placebo mean change from Baseline in weight at Endpoint."}, "[2]": {"test_system": "adult subjects with schizophrenia", "assay": "PANSS general psychopathology subscale score, Clinical Study Two", "conditions": "for Change from Baseline in General Psychopathology Subscale Score, Mean (SD) / Change from Baseline in General Psychopathology Subscale Score, Median / Trt Effect (bifeprunox - placebo), General Psychopathology Subscale Score / mean change (SD) from Baseline to Endpoint in PANSS general psychopathology subscale score: LOCF; for Change from Baseline in General Psychopathology Subscale Score, Mean (SD) / Change from Baseline in General Psychopathology Subscale Score, Median / Trt Effect (bifeprunox - placebo), General Psychopathology Subscale Score: ITT population; for Trt Effect (bifeprunox - placebo), General Psychopathology Subscale Score: ANCOVA; for PANSS general psychopathology subscale score, treatment effect (bifeprunox—placebo): Endpoint LOCF; for mean change (SD) from Baseline to Endpoint in PANSS general psychopathology subscale score: ITT", "protocol": "(§1) Rating scale assessments were performed weekly, except for week 5, to measure the change from baseline to endpoint of the PANSS total score. Other assessments included: PANSS positive symptom subscale score, PANSS negative symptom subscale score, PANSS general pschopathology subscale score, BPRS total score, BPRS psychosis score, the CGI-S score, the CGI-I score, responder rates based on the PANSS total score, and the Calgary Depression Scale for Schizophrenia (CDSS). […]\n(§2) Subjects who completed this study had the option to continue in the long-term. […] Risperidone-treated subjects were titrated from 2 mg to 6 mg daily over a three-day period and were subsequently maintained at 6 mg/day for the remainder of the treatment period. […] Blood samples were also obtained at Screening/Baseline, Week 3, and Week 6 for clinical laboratory assessments."}, "[3]": {"test_system": "adult subjects with schizophrenia", "assay": "CGI Improvement score, Clinical Study Two", "conditions": "LOCF", "protocol": "as §1, §2"}, "[4]": {"conditions": "Bifeprunox 30 mg, Week 6/Endpoint"}, "[5]": {"conditions": "Bifeprunox 40 mg, Week 6/Endpoint"}},
  "data": [
    {"smiles": "O=c1[nH]c2cccc(N3CCN(Cc4cccc(-c5ccccc5)c4)CC3)c2o1", "note": "[Bifeprunox, 7-[4-([1,1′-biphenyl]-3-ylmethyl)-1-piperazinyl]-2(3H)-benzoxazolone]", "values": [
      {"measurement": "mean weight change at Endpoint", "setting": "[1]; bifeprunox 5 mg", "result": "−1.0", "unit": "lb"},
      {"measurement": "subjects whose weight decreased by more than 7%", "setting": "[1]; bifeprunox 5 mg", "result": 6, "unit": "%"},
      {"measurement": "mean weight change at Endpoint", "setting": "[1]; bifeprunox 10 mg", "result": "−1.3", "unit": "lb"},
      {"measurement": "subjects whose weight decreased by more than 7%", "setting": "[1]; bifeprunox 10 mg", "result": 7, "unit": "%"},
      {"measurement": "mean weight change at Endpoint", "setting": "[1]; bifeprunox 20 mg", "result": "−0.6", "unit": "lbs"},
      {"measurement": "subjects whose weight decreased by more than 7%", "setting": "[1]; bifeprunox 20 mg", "result": 8, "unit": "%"},
      {"measurement": "body weight (in words)", "setting": "[1]; bifeprunox groups, 6 weeks", "result": "Mild weight loss"},
      {"measurement": "weight compared to placebo", "setting": "[1]; bifeprunox, 6 weeks (Example 4)", "result": "statistically significant (P<0.05) weight decrease"},
      {"measurement": "Change from Baseline in General Psychopathology Subscale Score, Mean (SD)", "setting": "[2]; Bifeprunox 30 mg, Week 1", "result": "−2.7 (6.4)"},
      {"measurement": "Change from Baseline in General Psychopathology Subscale Score, Median", "setting": "[2]; Bifeprunox 30 mg, Week 1", "result": "−2"},
      {"measurement": "Change from Baseline in General Psychopathology Subscale Score, Mean (SD)", "setting": "[2]; Bifeprunox 30 mg, Week 2", "result": "−4.9 (8.1)"},
      {"measurement": "Change from Baseline in General Psychopathology Subscale Score, Median", "setting": "[2]; Bifeprunox 30 mg, Week 2", "result": "−4"},
      {"measurement": "Change from Baseline in General Psychopathology Subscale Score, Mean (SD)", "setting": "[2]; Bifeprunox 30 mg, Week 3", "result": "−5.8 (9.2)"},
      {"measurement": "Change from Baseline in General Psychopathology Subscale Score, Median", "setting": "[2]; Bifeprunox 30 mg, Week 3", "result": "−5"},
      {"measurement": "Change from Baseline in General Psychopathology Subscale Score, Mean (SD)", "setting": "[2]; Bifeprunox 30 mg, Week 4", "result": "−6.1 (9.7)"},
      {"measurement": "Change from Baseline in General Psychopathology Subscale Score, Median", "setting": "[2]; Bifeprunox 30 mg, Week 4", "result": "−5"},
      {"measurement": "Change from Baseline in General Psychopathology Subscale Score, Mean (SD)", "setting": "[2]; [4]", "result": "−6.0 (10.2)"},
      {"measurement": "Change from Baseline in General Psychopathology Subscale Score, Median", "setting": "[2]; [4]", "result": "−5"},
      {"measurement": "Trt Effect (bifeprunox - placebo), General Psychopathology Subscale Score", "setting": "[2]; [4]", "result": "−2.5"},
      {"measurement": "Change from Baseline in General Psychopathology Subscale Score, Mean (SD)", "setting": "[2]; Bifeprunox 40 mg, Week 1", "result": "−2.7 (5.9)"},
      {"measurement": "Change from Baseline in General Psychopathology Subscale Score, Median", "setting": "[2]; Bifeprunox 40 mg, Week 1", "result": "−2"},
      {"measurement": "Change from Baseline in General Psychopathology Subscale Score, Mean (SD)", "setting": "[2]; Bifeprunox 40 mg, Week 2", "result": "−3.4 (7.9)"},
      {"measurement": "Change from Baseline in General Psychopathology Subscale Score, Median", "setting": "[2]; Bifeprunox 40 mg, Week 2", "result": "−3"},
      {"measurement": "Change from Baseline in General Psychopathology Subscale Score, Mean (SD)", "setting": "[2]; Bifeprunox 40 mg, Week 3", "result": "−3.8 (8.8)"},
      {"measurement": "Change from Baseline in General Psychopathology Subscale Score, Median", "setting": "[2]; Bifeprunox 40 mg, Week 3", "result": "−3"},
      {"measurement": "Change from Baseline in General Psychopathology Subscale Score, Mean (SD)", "setting": "[2]; Bifeprunox 40 mg, Week 4", "result": "−3.4 (9.3)"},
      {"measurement": "Change from Baseline in General Psychopathology Subscale Score, Median", "setting": "[2]; Bifeprunox 40 mg, Week 4", "result": "−2"},
      {"measurement": "Change from Baseline in General Psychopathology Subscale Score, Mean (SD)", "setting": "[2]; [5]", "result": "−3.8 (10.1)"},
      {"measurement": "Change from Baseline in General Psychopathology Subscale Score, Median", "setting": "[2]; [5]", "result": "−3"},
      {"measurement": "Trt Effect (bifeprunox - placebo), General Psychopathology Subscale Score", "setting": "[2]; [5]", "result": "−0.7"},
      {"measurement": "PANSS general psychopathology subscale score, treatment effect (bifeprunox—placebo)", "setting": "[2]; bifeprunox 30 mg", "result": "−2.5"},
      {"measurement": "mean change (SD) from Baseline to Endpoint in PANSS general psychopathology subscale score", "setting": "[2]; bifeprunox 30 mg", "result": "−6.0 (10.2)"},
      {"measurement": "PANSS general psychopathology subscale score, treatment effect (bifeprunox—placebo)", "setting": "[2]; bifeprunox 40 mg", "result": "−0.7"},
      {"measurement": "mean change (SD) from Baseline to Endpoint in PANSS general psychopathology subscale score", "setting": "[2]; bifeprunox 40 mg", "result": "−3.8 (10.1)"},
      {"measurement": "CGI Improvement Minimally Improved, %", "setting": "[3]; 30 mg, Week 2", "result": "(33%)"},
      {"measurement": "CGI Improvement Minimally Worse, %", "setting": "[3]; 30 mg, Week 2", "result": "(8%)"},
      {"measurement": "CGI Improvement Much Improved, %", "setting": "[3]; 30 mg, Week 2", "result": "(29%)"},
      {"measurement": "CGI Improvement Much Worse, %", "setting": "[3]; 30 mg, Week 2", "result": "(3%)"},
      {"measurement": "CGI Improvement No Change, %", "setting": "[3]; 30 mg, Week 2", "result": "(24%)"},
      {"measurement": "CGI Improvement Very Much Improved, %", "setting": "[3]; 30 mg, Week 2", "result": "(3%)"},
      {"measurement": "CGI Improvement Very Much Worse, %", "setting": "[3]; 30 mg, Week 2", "result": "(<1%)"},
      {"measurement": "CGI Improvement Minimally Improved, %", "setting": "[3]; 30 mg, Week 3", "result": "(28%)"},
      {"measurement": "CGI Improvement Minimally Worse, %", "setting": "[3]; 30 mg, Week 3", "result": "(7%)"},
      {"measurement": "CGI Improvement Much Improved, %", "setting": "[3]; 30 mg, Week 3", "result": "(27%)"},
      {"measurement": "CGI Improvement Much Worse, %", "setting": "[3]; 30 mg, Week 3", "result": "(4%)"},
      {"measurement": "CGI Improvement No Change, %", "setting": "[3]; 30 mg, Week 3", "result": "(26%)"},
      {"measurement": "CGI Improvement Very Much Improved, %", "setting": "[3]; 30 mg, Week 3", "result": "(6%)"},
      {"measurement": "CGI Improvement Very Much Worse, %", "setting": "[3]; 30 mg, Week 3", "result": "(<1%)"},
      {"measurement": "CGI Improvement Minimally Improved, %", "setting": "[3]; 30 mg, Week 4", "result": "(26%)"},
      {"measurement": "CGI Improvement Minimally Worse, %", "setting": "[3]; 30 mg, Week 4", "result": "(9%)"},
      {"measurement": "CGI Improvement Much Improved, %", "setting": "[3]; 30 mg, Week 4", "result": "(26%)"},
      {"measurement": "CGI Improvement Much Worse, %", "setting": "[3]; 30 mg, Week 4", "result": "(4%)"},
      {"measurement": "CGI Improvement No Change, %", "setting": "[3]; 30 mg, Week 4", "result": "(24%)"},
      {"measurement": "CGI Improvement Very Much Improved, %", "setting": "[3]; 30 mg, Week 4", "result": "(9%)"},
      {"measurement": "CGI Improvement Very Much Worse, %", "setting": "[3]; 30 mg, Week 4", "result": "(<1%)"},
      {"measurement": "CGI Improvement Minimally Improved, %", "setting": "[3]; 30 mg, Week 6/Endpoint", "result": "(21%)"},
      {"measurement": "CGI Improvement Minimally Worse, %", "setting": "[3]; 30 mg, Week 6/Endpoint", "result": "(11%)"},
      {"measurement": "CGI Improvement Much Improved, %", "setting": "[3]; 30 mg, Week 6/Endpoint", "result": "(28%)"},
      {"measurement": "CGI Improvement Much Worse, %", "setting": "[3]; 30 mg, Week 6/Endpoint", "result": "(6%)"},
      {"measurement": "CGI Improvement No Change, %", "setting": "[3]; 30 mg, Week 6/Endpoint", "result": "(24%)"},
      {"measurement": "CGI Improvement Very Much Improved, %", "setting": "[3]; 30 mg, Week 6/Endpoint", "result": "(9%)"},
      {"measurement": "CGI Improvement Very Much Worse, %", "setting": "[3]; 30 mg, Week 6/Endpoint", "result": "(<1%)"},
      {"measurement": "CGI Improvement Minimally Improved, %", "setting": "[3]; 40 mg, Week 2", "result": "(37%)"},
      {"measurement": "CGI Improvement Minimally Worse, %", "setting": "[3]; 40 mg, Week 2", "result": "(7%)"},
      {"measurement": "CGI Improvement Much Improved, %", "setting": "[3]; 40 mg, Week 2", "result": "(19%)"},
      {"measurement": "CGI Improvement Much Worse, %", "setting": "[3]; 40 mg, Week 2", "result": "(11%)"},
      {"measurement": "CGI Improvement No Change, %", "setting": "[3]; 40 mg, Week 2", "result": "(22%)"},
      {"measurement": "CGI Improvement Very Much Improved, %", "setting": "[3]; 40 mg, Week 2", "result": "(4%.)"}
    ]}
  ]
}
